Experiment in all cases: Checkerboard microdilution MIC of antibiotic with peptide
Background: Dilution methods test growth across graded concentrations, often in twofold steps.

The subject of one assay is E. coli IH3080. It counts as cell-based. To be noted: Escherichia coli, no peptide (None, 0). As to the method: (§1) The general assay medium was L broth (pH7.2) which contained 10 g of tryptone (Difco Laboratories, Detroit, Mich.), 5 g of yeast extract (Oxoid Ltd., Hampshire, UK) and 5 g of sodium chloride per liter. After an incubation time of 18 hours at 37° C., the growth of each microtiter well is measured with a Titerteck Multiscan spectrophotometer at 405 nm. Before reading, the spectrophotometer was blanked with corresponding uninoculated drug-containing media. The minimum inhibitory concentration (MIC) of an antibiotic was defined as the lowest concentration of the antibiotic expressed in mg/l which reduced the growth of the target bacteria by ≥90% (MIC90).

For the next assay, the system named is Ps. aeroginosa PAO1. It counts as cell-based. To be noted: Pseudomonas aeruginosa, no peptide (None, 0). The protocol:
as §1

A further assay relates to Kl. pneumoniae 12854. Type of assay: cell-based. As to the method: as §1
In a further assay the test system is E. cloa 12645. It counts as cell-based. To be noted: Enterobacter cloacae, no peptide (None, 0). As to the method:
as §1

Another assay deals with S. typhi SH5014. Type of assay: cell-based, Salmonella typhimurium. As to the method: as §1
Where [1] appears, read: Experiment I, read-out: MIC Rifampin.
The mark [2] stands for this setting: Experiment II, read-out: MIC Fusidic a.
The mark [3] stands for this setting: Experiment IV, read-out: MIC Erythrom.
Where [4] appears, read: Experiment III, read-out: MIC Novobiocin.

Where two headings read alike, the source gives them in different places.

A word on the MIC: it is the lowest concentration found to suppress growth. With `CO[C@H]1/C=C/O[C@@]2(C)Oc3c(C)c(O)c4c(O)c(c(/C=N/N5CCN(C)CC5)c(O)c4c3C2=O)NC(=O)/C(C)=C\C=C\[C@H](C)[C@H](O)[C@@H](C)[C@@H](O)[C@@H](C)[C@H](OC(C)=O)[C@@H]1C` [Rifampin, rifampin], the MIC is 10 µg/mL in the assay with E. coli IH3080 (setting [1]); > 10 µg/mL in the assay on Ps. aeroginosa PAO1 (setting [1]); 10 µg/mL in the assay on Kl. pneumoniae 12854 (Klebsiella pneumoniae, 12854, read-out: MIC Rifampin); 10 µg/mL in the assay with E. cloa 12645 (setting [1]); 10 µg/mL in the assay with S. typhi SH5014 (read-out: MIC Rifampin).
For the compound `CC(=O)O[C@H]1C[C@@]2(C)[C@@H](C[C@@H](O)[C@H]3[C@@]4(C)CC[C@@H](O)[C@@H](C)[C@@H]4CC[C@@]32C)/C1=C(\CCC=C(C)C)C(=O)O` [Fusidic a., fusidic acid], the MIC in the assay on E. coli IH3080 (setting [2]) is 300 µg/mL; with Ps. aeroginosa PAO1 (setting [2]), > 300 µg/mL; with Kl. pneumoniae 12854 (Klebsiella pneumoniae, 12854, read-out: MIC Fusidic a.) it was > 300 µg/mL; in the assay on E. cloa 12645 (setting [2]), > 300 µg/mL; in the assay on S. typhi SH5014 (read-out: MIC Fusidic a.) it was > 300 µg/mL.
Regarding `CC[C@H]1OC(=O)[C@H](C)[C@@H](O[C@H]2C[C@@](C)(OC)[C@@H](O)[C@H](C)O2)[C@H](C)[C@@H](O[C@@H]2O[C@H](C)C[C@H](N(C)C)[C@H]2O)[C@](C)(O)C[C@@H](C)C(=O)[C@H](C)[C@@H](O)[C@]1(C)O` [Erythrom., erythromycin], the MIC in the assay with E. coli IH3080 (setting [3]) was 30 µg/mL; with Ps. aeroginosa PAO1 (setting [3]), 100 µg/mL; in the assay on Kl. pneumoniae 12854 (Klebsiella pneumoniae, 12854, read-out: MIC Erythrom.) it was > 100 µg/mL; in the assay with E. cloa 12645 (setting [3]), > 100 µg/mL; with S. typhi SH5014 (read-out: MIC Erythromycin.) it was 100 µg/mL.
On to `CO[C@@H]1[C@@H](OC(N)=O)[C@@H](O)[C@H](Oc2ccc3c(O)c(NC(=O)c4ccc(O)c(CC=C(C)C)c4)c(=O)oc3c2C)OC1(C)C` [Novobiocin, novobiocin], for which the MIC in the assay on E. coli IH3080 (setting [4]) is 30 µg/mL; with Ps. aeroginosa PAO1 (setting [4]), > 30 µg/mL; in the assay with Kl. pneumoniae 12854 (Klebsiella pneumoniae, 12854, read-out: MIC Novobiocin), 30 µg/mL; with E. cloa 12645 (setting [4]), > 30 µg/mL; in the assay on S. typhi SH5014 (read-out: MIC Novobiocin) it was 30 µg/mL.

(Values after patent publication US5834430A, “Potentiation of antibiotics” (BiosYnth S.r.l., priority 1995, dated 1998).)
